Data reported in ChEMBL document CHEMBL1123078 (J Med Chem, 1985).

Columns and labels:
Dihydrofolate reductase [1] = target: T1, Dihydrofolate reductase (Rattus norvegicus, UniProt Q920D2); test: Binding affinity against Dihydrofolate reductase of rat liver; details: read-out: I50
T1 sequence (Q920D2 whole entry): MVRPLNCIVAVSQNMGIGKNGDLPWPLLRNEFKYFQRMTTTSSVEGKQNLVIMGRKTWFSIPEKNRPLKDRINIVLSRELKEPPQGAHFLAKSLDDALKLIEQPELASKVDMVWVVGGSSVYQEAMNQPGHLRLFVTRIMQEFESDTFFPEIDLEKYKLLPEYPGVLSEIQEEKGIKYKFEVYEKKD

Proteus vulgaris = test: Relative in vitro Antibacterial activity against Proteus vulgaris CN329 strain; type: functional; parameters: unit not given here
Staphylococcus aureus = test: Relative in vitro Antibacterial activity against Staphylococcus aureus CN491 strain; type: functional; parameters: unit not given here
Escherichia coli [2] = test: (§1) Relative in vitro Antibacterial activity against Escherichia coli CN314 strain; type: functional; parameters: reference not given here
Escherichia coli [3] = test: as §1; type: functional; parameters: unit not given here
Dihydrofolate reductase [4] = target: T2, Dihydrofolate reductase (Escherichia coli, UniProt P0ABQ4); test: Relative Binding affinity against Dihydrofolate reductase of Escherichia coli
T2 sequence (P0ABQ4 whole entry): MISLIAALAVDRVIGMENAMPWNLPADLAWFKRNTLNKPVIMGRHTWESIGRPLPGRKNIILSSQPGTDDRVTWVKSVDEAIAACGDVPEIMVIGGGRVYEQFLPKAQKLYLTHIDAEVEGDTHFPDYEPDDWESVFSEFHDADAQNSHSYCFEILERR

Dihydrofolate reductase [5] = target: T3, Dihydrofolate reductase (Gallus gallus, UniProt P00378); test: Binding affinity against Dihydrofolate reductase of chicken liver; details: read-out: I50
T3 sequence (P00378 whole entry): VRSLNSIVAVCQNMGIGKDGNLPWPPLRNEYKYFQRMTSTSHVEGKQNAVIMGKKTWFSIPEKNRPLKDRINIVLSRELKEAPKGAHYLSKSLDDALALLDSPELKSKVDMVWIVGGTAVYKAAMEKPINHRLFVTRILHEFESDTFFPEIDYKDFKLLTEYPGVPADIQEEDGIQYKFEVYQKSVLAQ

Dihydrofolate reductase [6] = target: T3, Dihydrofolate reductase; test: Binding affinity against Dihydrofolate reductase Inhibitor of chicken liver; details: read-out: I50
Salmonella = type: functional, salmonella typhosa; parameters: unit not given here
[7] = target: T4, Dihydrofolate reductase (Rattus norvegicus) (UniProt Q920D2); test: Percent inhibition against Dihydrofolate reductase of rat liver at dose 0.42 mg/kg; type: organism-based; parameters: dose 0.42 mg/kg
T4 sequence (whole entry): T1 sequence (Q920D2 whole entry)

[8] = target: T4, Dihydrofolate reductase (Rattus norvegicus); test: Percent inhibition against Dihydrofolate reductase of rat liver at dose 1.0 mg/kg; type: organism-based; parameters: dose 1 mg/kg
[9] = target: T4, Dihydrofolate reductase (Rattus norvegicus); test: Percent inhibition against Dihydrofolate reductase of rat liver at dose 0.9 mg/kg; type: organism-based; parameters: dose 0.9 mg/kg

Compound	IC50 (Dihydrofolate reductase [1])	MIC (Proteus vulgaris)	MIC (Staphylococcus aureus)	MIC (Escherichia coli [2])	MIC (Escherichia coli [3])	MIC (Salmonella)	further results
COc1cc(Cc2cnc(N)nc2N)cc(OCCCCCCC(=O)O)c1OC	56 µM	>50	1	100	–	–	–
COC(=O)CCCCOc1cc(Cc2cnc(N)nc2N)cc(OC)c1OC	130 µM	>100	2	–	1000	–	–
COc1cc(Cc2cnc(N)nc2N)cc(OC)c1OCCCC(=O)O	400 µM	–	–	–	–	–	Ki (Dihydrofolate reductase [4]): 0.0052 µM; IC50 (Dihydrofolate reductase [5]): 350 µM
COc1cc(Cc2cnc(N)nc2N)cc(OCCCC(=O)O)c1OC	9.7 µM	>100	20	100	–	–	IC50 (Dihydrofolate reductase [6]): 22 µM
COC(=O)COc1cc(Cc2cnc(N)nc2N)cc(OC)c1OC	–	>100	200	–	100	1000	inhibition [7]: 15%
COc1cc(Cc2cnc(N)nc2N)cc(OCC(=O)O)c1OC	70 µM	>100	>200	100	–	–	–
COc1cc(Cc2cnc(N)nc2N)cc(OCCC(=O)O)c1OC	74 µM	>100	20	1	–	–	–
COC(=O)CCCCCOc1c(OC)cc(Cc2cnc(N)nc2N)cc1OC	–	>100	6	–	1000	300	–
COc1cc(Cc2cnc(N)nc2N)cc(OC)c1OC [TRIMETHOPRIM]	–	1	1	1	–	–	–
COC(=O)CCCCCOc1cc(Cc2cnc(N)nc2N)cc(OC)c1OC	180 µM	>100	2	–	100	30	–
COc1cc(Cc2cnc(N)nc2N)cc(OC)c1OCCCCC(=O)O	640 µM	–	–	–	–	–	–
COC(=O)CCCCOc1c(OC)cc(Cc2cnc(N)nc2N)cc1OC	–	–	–	–	–	–	inhibition [8]: 0%
CCOC(=O)CCCOc1cc(Cc2cnc(N)nc2N)cc(OC)c1OC	160 µM	50	10	–	100	100	–
COC(=O)CCCCCCOc1cc(Cc2cnc(N)nc2N)cc(OC)c1OC	110 µM	>50	0.2	–	100	50	–
COc1cc(Cc2cnc(N)nc2N)cc(OCCCCC(=O)O)c1OC	27 µM	>100	2	300	–	–	–
COc1cc(Cc2cnc(N)nc2N)cc(OC)c1OCCCCCC(=O)O	–	>100	6	–	30	30	–
CCOC(=O)COc1c(OC)cc(Cc2cnc(N)nc2N)cc1OC	–	>100	60	–	100	10	–
CCOC(=O)CCCOc1c(OC)cc(Cc2cnc(N)nc2N)cc1OC	–	–	–	–	–	–	inhibition [9]: 17%
COc1cc(Cc2cnc(N)nc2N)cc(OC)c1OCC(=O)O	–	>100	200	–	300	100	–
COc1cc(Cc2cnc(N)nc2N)cc(OCCCCCC(=O)O)c1OC	35 µM	>100	2	300	–	–	–
